In the NIST ThermoML archive (doi:10.1016/j.jct.2011.11.021):
± gives the expanded uncertainty stated by the source.

Test: activity coefficient (dimensionless); of the first substance listed, at infinite dilution; xn = mol fraction of the nth substance listed
Details: Liquid, Chromatography, x1 = 0

Compound	activity coefficient (318.15 K)	activity coefficient (328.15 K)	activity coefficient (338.15 K)	activity coefficient (348.15 K)	activity coefficient (358.15 K)	activity coefficient (368.15 K)
CCOC(C)(C)C [2-ethoxy-2-methylpropane] + COCC[N+]1(C)CCOCC1.O=S(=O)([N-]S(=O)(=O)C(F)(F)F)C(F)(F)F	9.5 ± 0.65	9.21 ± 0.63	8.97 ± 0.61	8.75 ± 0.6	8.49 ± 0.58	8.3 ± 0.57
CCC(C)(C)OC [2-methoxy-2-methylbutane] + COCC[N+]1(C)CCOCC1.O=S(=O)([N-]S(=O)(=O)C(F)(F)F)C(F)(F)F	5.55 ± 0.38	5.5 ± 0.37	5.43 ± 0.37	5.37 ± 0.37	5.32 ± 0.36	5.28 ± 0.36
COC(C)(C)C [2-methoxy-2-methylpropane] + COCC[N+]1(C)CCOCC1.O=S(=O)([N-]S(=O)(=O)C(F)(F)F)C(F)(F)F	3.53 ± 0.24	3.55 ± 0.24	3.57 ± 0.24	3.58 ± 0.24	3.59 ± 0.24	3.6 ± 0.25
CC(C)CO [2-methyl-1-propanol] + COCC[N+]1(C)CCOCC1.O=S(=O)([N-]S(=O)(=O)C(F)(F)F)C(F)(F)F	3.19 ± 0.22	2.81 ± 0.19	2.51 ± 0.17	2.25 ± 0.15	2.04 ± 0.14	1.89 ± 0.13
CC(C)(C)O [2-methylpropan-2-ol] + COCC[N+]1(C)CCOCC1.O=S(=O)([N-]S(=O)(=O)C(F)(F)F)C(F)(F)F	2.22 ± 0.15	2.03 ± 0.14	1.88 ± 0.13	1.75 ± 0.12	1.62 ± 0.11	1.52 ± 0.1
CCC(C)CC [3-methylpentane] + COCC[N+]1(C)CCOCC1.O=S(=O)([N-]S(=O)(=O)C(F)(F)F)C(F)(F)F	32.3 ± 2.2	29 ± 2	26.3 ± 1.8	23.9 ± 1.6	21.9 ± 1.5	20.2 ± 1.4
C=C(C)c1ccccc1 [(1-methylethenyl)benzene] + COCC[N+]1(C)CCOCC1.O=S(=O)([N-]S(=O)(=O)C(F)(F)F)C(F)(F)F		2.74 ± 0.19	2.76 ± 0.19	2.78 ± 0.19	2.79 ± 0.19	2.81 ± 0.19
CC(=O)O [acetic acid] + COCC[N+]1(C)CCOCC1.O=S(=O)([N-]S(=O)(=O)C(F)(F)F)C(F)(F)F		0.451 ± 0.036	0.456 ± 0.036	0.459 ± 0.036	0.465 ± 0.036	0.468 ± 0.037
CC(C)=O [acetone] + COCC[N+]1(C)CCOCC1.O=S(=O)([N-]S(=O)(=O)C(F)(F)F)C(F)(F)F	0.43 ± 0.035	0.442 ± 0.036	0.451 ± 0.036	0.461 ± 0.036	0.47 ± 0.037	0.48 ± 0.037
CC#N [acetonitrile] + COCC[N+]1(C)CCOCC1.O=S(=O)([N-]S(=O)(=O)C(F)(F)F)C(F)(F)F	0.423 ± 0.035	0.426 ± 0.035	0.428 ± 0.035	0.431 ± 0.035	0.433 ± 0.035	0.436 ± 0.035
c1ccccc1 [benzene] + COCC[N+]1(C)CCOCC1.O=S(=O)([N-]S(=O)(=O)C(F)(F)F)C(F)(F)F	1.33 ± 0.09	1.32 ± 0.09	1.32 ± 0.09	1.32 ± 0.09	1.31 ± 0.09	1.31 ± 0.09
CCCCO [butan-1-ol] + COCC[N+]1(C)CCOCC1.O=S(=O)([N-]S(=O)(=O)C(F)(F)F)C(F)(F)F	3.31 ± 0.23	2.94 ± 0.2	2.66 ± 0.18	2.4 ± 0.16	2.18 ± 0.15	2.02 ± 0.14
CCC(C)O (stereo not given) [butan-2-ol] + COCC[N+]1(C)CCOCC1.O=S(=O)([N-]S(=O)(=O)C(F)(F)F)C(F)(F)F	2.76 ± 0.19	2.47 ± 0.17	2.26 ± 0.15	2.06 ± 0.14	1.9 ± 0.13	1.78 ± 0.12
CCCC=O [butanal] + COCC[N+]1(C)CCOCC1.O=S(=O)([N-]S(=O)(=O)C(F)(F)F)C(F)(F)F	0.871 ± 0.056	0.884 ± 0.056	0.891 ± 0.057	0.902 ± 0.057	0.909 ± 0.058	0.918 ± 0.058
C1CCCCCC1 [cycloheptane] + COCC[N+]1(C)CCOCC1.O=S(=O)([N-]S(=O)(=O)C(F)(F)F)C(F)(F)F	26.2 ± 1.8	23.6 ± 1.6	21.5 ± 1.5	19.7 ± 1.3	18.1 ± 1.2	16.6 ± 1.1
C1CCCCC1 [cyclohexane] + COCC[N+]1(C)CCOCC1.O=S(=O)([N-]S(=O)(=O)C(F)(F)F)C(F)(F)F	18.8 ± 1.3	17 ± 1.2	15.6 ± 1.1	14.4 ± 1	13.3 ± 0.9	12.3 ± 0.8

Compound	activity coefficient (318.15 K)	activity coefficient (328.15 K)	activity coefficient (338.15 K)	activity coefficient (348.15 K)	activity coefficient (358.15 K)	activity coefficient (368.15 K)
C1=CCCCC1 [cyclohexene] + COCC[N+]1(C)CCOCC1.O=S(=O)([N-]S(=O)(=O)C(F)(F)F)C(F)(F)F	9.14 ± 0.62	8.62 ± 0.59	8.21 ± 0.56	7.84 ± 0.53	7.45 ± 0.51	7.08 ± 0.48
C1CCCCCCC1 [cyclooctane] + COCC[N+]1(C)CCOCC1.O=S(=O)([N-]S(=O)(=O)C(F)(F)F)C(F)(F)F	36.6 ± 2.5	32.6 ± 2.2	29.6 ± 2	26.7 ± 1.8	24.2 ± 1.7	22.1 ± 1.5
C1CCCC1 [cyclopentane] + COCC[N+]1(C)CCOCC1.O=S(=O)([N-]S(=O)(=O)C(F)(F)F)C(F)(F)F	12.2 ± 0.8	11.2 ± 0.8	10.4 ± 0.7	9.68 ± 0.66	9.1 ± 0.62	8.54 ± 0.58
CCCCCCCCCC [decane] + COCC[N+]1(C)CCOCC1.O=S(=O)([N-]S(=O)(=O)C(F)(F)F)C(F)(F)F	192 ± 13	165 ± 11	145 ± 10	126 ± 9	111 ± 8	98.2 ± 6.7
CCOCC [diethyl ether] + COCC[N+]1(C)CCOCC1.O=S(=O)([N-]S(=O)(=O)C(F)(F)F)C(F)(F)F	3.49 ± 0.24	3.46 ± 0.24	3.44 ± 0.23	3.41 ± 0.23	3.39 ± 0.23	3.37 ± 0.23
CC(C)OC(C)C [diisopropyl ether] + COCC[N+]1(C)CCOCC1.O=S(=O)([N-]S(=O)(=O)C(F)(F)F)C(F)(F)F	10.1 ± 0.7	9.8 ± 0.67	9.55 ± 0.65	9.26 ± 0.63	8.98 ± 0.61	8.75 ± 0.6
CCCOCCC [dipropyl ether] + COCC[N+]1(C)CCOCC1.O=S(=O)([N-]S(=O)(=O)C(F)(F)F)C(F)(F)F	10.7 ± 0.7	10.3 ± 0.7	9.92 ± 0.68	9.56 ± 0.65	9.2 ± 0.63	8.97 ± 0.61
CCO [ethanol] + COCC[N+]1(C)CCOCC1.O=S(=O)([N-]S(=O)(=O)C(F)(F)F)C(F)(F)F	1.77 ± 0.12	1.61 ± 0.11	1.49 ± 0.1	1.36 ± 0.09	1.26 ± 0.08	1.17 ± 0.07
CCOC(C)=O [ethyl acetate] + COCC[N+]1(C)CCOCC1.O=S(=O)([N-]S(=O)(=O)C(F)(F)F)C(F)(F)F	0.984 ± 0.062	1 ± 0.06	1.02 ± 0.06	1.03 ± 0.06	1.04 ± 0.07	1.06 ± 0.07
CCc1ccccc1 [ethylbenzene] + COCC[N+]1(C)CCOCC1.O=S(=O)([N-]S(=O)(=O)C(F)(F)F)C(F)(F)F	3.27 ± 0.22	3.21 ± 0.22	3.16 ± 0.22	3.1 ± 0.21	3.04 ± 0.21	2.99 ± 0.2
CCCCCCC [heptane] + COCC[N+]1(C)CCOCC1.O=S(=O)([N-]S(=O)(=O)C(F)(F)F)C(F)(F)F	54.4 ± 3.7	48.7 ± 3.3	43.8 ± 3	39.7 ± 2.7	36.2 ± 2.5	33.1 ± 2.3
C=CCCCC [hex-1-ene] + COCC[N+]1(C)CCOCC1.O=S(=O)([N-]S(=O)(=O)C(F)(F)F)C(F)(F)F	16.5 ± 1.1	15.3 ± 1	14.3 ± 1	13.6 ± 0.9	12.9 ± 0.9	12.1 ± 0.8
CCCCCC [hexane] + COCC[N+]1(C)CCOCC1.O=S(=O)([N-]S(=O)(=O)C(F)(F)F)C(F)(F)F	36.1 ± 2.5	32.6 ± 2.2	29.8 ± 2	27.2 ± 1.9	25 ± 1.7	23.1 ± 1.6
CO [methanol] + COCC[N+]1(C)CCOCC1.O=S(=O)([N-]S(=O)(=O)C(F)(F)F)C(F)(F)F	1.28 ± 0.08	1.18 ± 0.08	1.1 ± 0.07	1.02 ± 0.06	0.95 ± 0.06	0.897 ± 0.057
CCCC(=O)OC [methyl butanoate] + COCC[N+]1(C)CCOCC1.O=S(=O)([N-]S(=O)(=O)C(F)(F)F)C(F)(F)F	1.42 ± 0.09	1.44 ± 0.09	1.45 ± 0.1	1.45 ± 0.1	1.46 ± 0.1	1.48 ± 0.1
COC(C)=O [methyl ethanoate] + COCC[N+]1(C)CCOCC1.O=S(=O)([N-]S(=O)(=O)C(F)(F)F)C(F)(F)F	0.684 ± 0.046	0.7 ± 0.047	0.714 ± 0.048	0.729 ± 0.048	0.74 ± 0.049	0.754 ± 0.05
